The supplement of paper PMC4862054

Legend:
Conditions in all cases: incubation time: 72 h
MFM-223 [1] = assay: normalised viability (% of control), CellTiter-Blue; higher = more viable cells (about 100 = DMSO control)
How it was run: (§1)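 Breast cancer cell lines in 20 µl suspension were seeded onto 384-well plates pre-loaded with compound dissolved in 5 µl medium, then incubated 72 h. CellTiter-Blue reagent (2.5 µl) was added for 2 h at 37 °C and fluorescence read at 560/590 nm. Each plate was normalised to vehicle (100) and a positive kill control (0), with Z'-factor quality control. The value is normalised viability at one listed concentration of the series.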

CAL-120 [2] = assay: as above
How it was run: as §1

CAL-51 [3] = assay: as above
How it was run: as §1

HCC1937 [4] = assay: as above
How it was run: as §1

MDA-MB-231 [5] = assay: as above
How it was run: as §1

MDA-MB-468 = assay: as above
How it was run: as §1

DU-4475 = assay: as above
How it was run: as §1

Hs578T [6] = assay: as above
How it was run: as §1

CAL-85-1 [7] = assay: as above
How it was run: as §1

MFM-223 [8] = assay: drug sensitivity score (DSS), CellTiter-Glo (DSS (AUC-based score)); higher = stronger drug effect (viability inhibition or cytotoxicity); extreme values may be limits of the assay
How it was run: (§2)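 Compound was dispensed into 384-well plates at 5 concentrations in 10-fold steps spanning a 10,000-fold range chosen for each compound, and 20 µl of breast cancer cell suspension was added before 72 h of incubation. CellTox Green fluorescence was read at 485/520 nm, followed by CellTiter-Glo luminescence after 10 min at room temperature. Values on each plate were normalised to 0.1 % DMSO and a positive kill control. The drug sensitivity score came from the area under the fitted dose-response curve.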

CAL-120 [9] = assay: as above
How it was run: as §2

HCC1599 = assay: as above
How it was run: as §2

SK-BR-3 = assay: as above
How it was run: as §2

BT-549 = assay: as above
How it was run: as §2

MDA-MB-453 = assay: as above
How it was run: as §2

CAL-51 [10] = assay: as above
How it was run: as §2

BT-474 = assay: as above
How it was run: as §2

HCC1937 [11] = assay: as above
How it was run: as §2

MDA-MB-231 [12] = assay: as above
How it was run: as §2

HCC1143 = assay: as above
How it was run: as §2

MCF-10A = assay: as above
How it was run: as §2

Hs578T [13] = assay: as above
How it was run: as §2

CAL-148 = assay: as above
How it was run: as §2

MDA-MB-436 = assay: as above
How it was run: as §2

CAL-85-1 [14] = assay: as above
How it was run: as §2

CCNC(=O)c1noc(-c2cc(C(C)C)c(O)cc2O)c1-c1ccc(CN2CCOCC2)cc1 [NVP-AUY922]
normalised viability [%]
Conditions | CAL-51 [3] | CAL-85-1 [7] | CAL-120 [2] | DU-4475 | HCC1937 [4] | Hs578T [6] | MDA-MB-231 [5] | MDA-MB-468 | MFM-223 [1]
0.3 nM | 107 | 101 | – | 114 | – | – | – | – | –
1 nM | – | – | 101 | – | 58.5 | 110 | 140 | 106 | 97.4
3 nM | 106 | 96.8 | – | 109 | – | – | – | – | –
10 nM | 104 | 102 | – | 87.6 | – | – | – | – | –
100 nM | – | – | 18.9 | – | 24.7 | 44.1 | 39.1 | 27.3 | 26.1
1000 nM | – | – | 17.1 | – | 30.7 | 37.2 | 31 | 23.3 | 25.4

Conditions | drug sensitivity score
BT-474 | 13
BT-549 | 14.1
CAL-51 [10] | 15.7
CAL-85-1 [14] | 14.1
CAL-120 [9] | 9.4
CAL-148 | 12.5
HCC1143 | 11.2
HCC1599 | 3.99
HCC1937 [11] | 13.8
Hs578T [13] | 11
MCF-10A | 16.2
MDA-MB-231 [12] | 13.3
MDA-MB-436 | 14.8
MDA-MB-453 | 12.4
MFM-223 [8] | 14.9
SK-BR-3 | 16.7

CC1(C)CCC(c2ccc(Cl)cc2)=C(CN2CCN(c3ccc(C(=O)NS(=O)(=O)c4ccc(N[C@H](CCN5CCOCC5)CSc5ccccc5)c(S(=O)(=O)C(F)(F)F)c4)cc3)CC2)C1 [Navitoclax]
normalised viability [%]
Conditions | CAL-51 [3] | CAL-85-1 [7] | CAL-120 [2] | DU-4475 | HCC1937 [4] | Hs578T [6] | MDA-MB-231 [5] | MDA-MB-468 | MFM-223 [1]
3 nM | 112 | 84.1 | – | 88.7 | – | – | – | – | –
10 nM | – | – | 69.9 | – | 87.6 | 91.8 | 74.7 | 91.9 | 77.2
30 nM | 104 | 81.1 | – | 72.9 | – | – | – | – | –
100 nM | 101 | 85.3 | – | 70.3 | – | – | – | – | –
1000 nM | – | – | 64.7 | – | 85.8 | 92.2 | 55.7 | 81.6 | 68.7
10000 nM | – | – | 30.5 | – | 85 | 88.8 | 30.6 | 71.2 | 40.6

Conditions | drug sensitivity score
BT-474 | 9.19
BT-549 | 0.252
CAL-51 [10] | 2.18
CAL-85-1 [14] | 0.831
CAL-120 [9] | 7.04
CAL-148 | 2
HCC1143 | 0
HCC1599 | 0
HCC1937 [11] | 3.57
Hs578T [13] | 0
MCF-10A | 0
MDA-MB-231 [12] | 11.1
MDA-MB-436 | 0
MDA-MB-453 | 3.71
MFM-223 [8] | 2.94
SK-BR-3 | 0

Nc1ccn([C@@H]2O[C@H](CO)[C@@H](O)C2(F)F)c(=O)n1 [Gemcitabine]
normalised viability [%]
Conditions | CAL-51 [3] | CAL-85-1 [7] | CAL-120 [2] | DU-4475 | HCC1937 [4] | Hs578T [6] | MDA-MB-231 [5] | MDA-MB-468 | MFM-223 [1]
0.3 nM | 102 | 96.6 | – | 95.1 | – | – | – | – | –
1 nM | – | – | 107 | – | 92.3 | 106 | 97.9 | 104 | 99.7
3 nM | 98 | 85.1 | – | 88.3 | – | – | – | – | –
10 nM | 83.2 | 85.3 | – | 98.2 | – | – | – | – | –
100 nM | – | – | 41.6 | – | 38.8 | 62.6 | 72.1 | 35.5 | 95.6
1000 nM | – | – | 43 | – | 27.9 | 71.5 | 72.2 | 24.6 | 34.9

Conditions | drug sensitivity score
BT-474 | 3.22
BT-549 | 14.7
CAL-51 [10] | 16.7
CAL-85-1 [14] | 12.4
CAL-120 [9] | 3.04
CAL-148 | 10.6
HCC1143 | 14.5
HCC1599 | 12.8
HCC1937 [11] | 0
Hs578T [13] | 4.8
MCF-10A | 5.69
MDA-MB-231 [12] | 0
MDA-MB-436 | 16.8
MDA-MB-453 | 4.36
MFM-223 [8] | 0
SK-BR-3 | 13.6

Cn1cc(C2=C(c3cn(C4CCN(Cc5ccccn5)CC4)c4ccccc34)C(=O)NC2=O)c2ccccc21 [Enzastaurin]
normalised viability [%]
Conditions | CAL-51 [3] | CAL-85-1 [7] | CAL-120 [2] | DU-4475 | HCC1937 [4] | Hs578T [6] | MDA-MB-231 [5] | MDA-MB-468 | MFM-223 [1]
3 nM | 117 | 85.1 | – | 91.1 | – | – | – | – | –
10 nM | – | – | 89.6 | – | 91.1 | 91.2 | 88.2 | 103 | 90
30 nM | 111 | 93.4 | – | 103 | – | – | – | – | –
100 nM | 107 | 85.4 | – | 94.2 | – | – | – | – | –
1000 nM | – | – | 95 | – | 75.6 | 68 | 89.6 | 107 | 65.1
10000 nM | – | – | 65.9 | – | 48.9 | 32.6 | 71.1 | 62.8 | 55.9

Conditions | drug sensitivity score
BT-474 | 0
BT-549 | 0
CAL-51 [10] | 0
CAL-85-1 [14] | 0
CAL-120 [9] | 0
CAL-148 | 0
HCC1143 | 0
HCC1599 | 0
HCC1937 [11] | 0
Hs578T [13] | 0
MCF-10A | 0
MDA-MB-231 [12] | 0
MDA-MB-436 | 0
MDA-MB-453 | 0
MFM-223 [8] | 0
SK-BR-3 | 0
